Source: article PMC5309245, “Discovery and Characterization of Diazenylaryl Sulfonic Acids as Inhibitors of Viral and Bacterial Neuraminidases” (Frontiers in Microbiology, 2017)

Legend:
[1] = molecular target: IAV WSN/33 NA-wt (whole virus) (Influenza A virus, UniProt P03470); assay: biochemical; set-up: species or system influenza A virus A/WSN/1933 (H1N1); conditions: NA inhibition using FL assay IC50, IAV WSN/33
S. pneumoniae DSM20566 = assay: Microtiter broth microdilution assay, planktonic growth; assay type: cell-based, Streptococcus pneumoniae DSM20566; conditions: 18 h, maximum 50 μM
[2] = molecular target: T1, S. pneumoniae DSM20566 NA (NanA) (Streptococcus pneumoniae, UniProt P62575); assay: FL NA inhibition assay, S. pneumoniae DSM20566; assay type: biochemical; conditions: MUNANA substrate; read-out: NA inhibition using FL assay IC50, S. p. DSM20566
T1 construct: host or cells: either rNanA from E. coli BL21(DE3) or total precipitated protein of S. pneumoniae DSM20566

[3] = molecular target: IAV HK/68 NA (whole virus) (Influenza A virus, UniProt Q91MA2); assay: biochemical; set-up: species or system influenza A virus A/Hong Kong/68 (H3N2); conditions: for IC50: NA inhibition using FL assay IC50, IAV HK/68
influenza A virus WSN/33 = assay: microbe, parasite or virus in culture; assay type: cell-based, influenza A virus A/WSN/1933 (H1N1)
[4] = molecular target: T2, S. pneumoniae DSM20566 NA (Streptococcus pneumoniae, UniProt P62575); assay: HA-based NA inhibition assay, S. pneumoniae DSM20566; assay type: cell-based; conditions: human erythrocytes
T2 construct: host or cells: either rNanA from E. coli BL21(DE3) or total precipitated protein of S. pneumoniae DSM20566

human erythrocytes [5] = assay type: cell-based; conditions: human erythrocytes, 2 h at 4°C
Description: (§1) Viral (whole virus) and bacterial NA activity as well as their inhibition were measured by using a fluorescence (FL) assay with the substrate 2′-(4-methylumbelliferyl)-α-D-N-acetylneuraminic acid sodium salt hydrate (MUNANA, 100 μM; Sigma-Aldrich GmbH, Taufkirchen, Germany), and/or a hemagglutination (HA)-based NA inhibition assay (HA assay) with human erythrocytes (Institute of Transfusion Medicine, University Hospital Jena, Jena, Germany), both assays as published recently (Richter et al., [2015]). Recombinant NanA (rNanA) and total precipitated bacterial protein of S. pneumoniae DSM20566 were used in FL and HA assays. Interference of the compounds with the FL signal (self-fluorescence and quenching) was excluded as described previously (Richter et al., [2015]). […] Each compound was tested at least three times in both NA inhibition assays.
Supplementary Table 1. Assay interference phenomena of test compounds in the HA-based […]
sample concentrations [µM] in viral HA-assay bacterial HA-assay […]
hem- prevention of erythrocyte hem- erythrocyte agglutinationa virus-induced lysisc agglutinationd lysise […]
cTest compounds lysed the human erythrocytes (2 h at 4°C). […]

human erythrocytes [6] = assay type: cell-based; conditions: human erythrocytes, 4 h at 37°C and 12 h at 4°C
Description: as §1
Supplementary Table 1. […]
eTest compounds lysed the human erythrocytes (4 h at 37°C and 12 h at 4°C).

influenza A virus HK/68 = assay: microbe, parasite or virus in culture; assay type: cell-based, influenza A virus A/Hong Kong/68 (H3N2)
IAV 5258/09 NA = assay: Hemagglutination (HA)-based NA inhibition assay, IAV 5258/09; assay type: cell-based, influenza A virus A/Jena/5258/2009 (H1N1); conditions: human erythrocytes
[7] = tested on: S. pneumoniae DSM20566 biofilm; assay: Biofilm inhibition assay; assay type: cell-based, Streptococcus pneumoniae DSM20566
[8] = tested on: influenza A virus 8178/09; assay: microbe, parasite or virus in culture; assay type: cell-based, influenza A virus A/Jena/8178/2009 (H1N1)
in vitro = conditions: dog

Chain of IAV HK/68 NA (whole virus) (Q91MA2 whole entry, looked up): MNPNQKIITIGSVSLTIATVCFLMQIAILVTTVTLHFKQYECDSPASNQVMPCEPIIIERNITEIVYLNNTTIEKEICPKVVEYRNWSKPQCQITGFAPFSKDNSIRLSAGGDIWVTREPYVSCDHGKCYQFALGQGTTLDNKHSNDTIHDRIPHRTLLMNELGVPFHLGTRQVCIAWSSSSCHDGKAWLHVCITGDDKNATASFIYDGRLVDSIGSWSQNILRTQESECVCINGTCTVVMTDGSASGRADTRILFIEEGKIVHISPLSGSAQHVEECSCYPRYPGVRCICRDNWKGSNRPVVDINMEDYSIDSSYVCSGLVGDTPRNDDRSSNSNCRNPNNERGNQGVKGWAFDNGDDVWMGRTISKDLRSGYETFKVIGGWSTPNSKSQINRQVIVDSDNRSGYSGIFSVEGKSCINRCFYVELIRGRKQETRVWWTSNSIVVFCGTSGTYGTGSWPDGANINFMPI
T1 sequence (P62575 54-1035): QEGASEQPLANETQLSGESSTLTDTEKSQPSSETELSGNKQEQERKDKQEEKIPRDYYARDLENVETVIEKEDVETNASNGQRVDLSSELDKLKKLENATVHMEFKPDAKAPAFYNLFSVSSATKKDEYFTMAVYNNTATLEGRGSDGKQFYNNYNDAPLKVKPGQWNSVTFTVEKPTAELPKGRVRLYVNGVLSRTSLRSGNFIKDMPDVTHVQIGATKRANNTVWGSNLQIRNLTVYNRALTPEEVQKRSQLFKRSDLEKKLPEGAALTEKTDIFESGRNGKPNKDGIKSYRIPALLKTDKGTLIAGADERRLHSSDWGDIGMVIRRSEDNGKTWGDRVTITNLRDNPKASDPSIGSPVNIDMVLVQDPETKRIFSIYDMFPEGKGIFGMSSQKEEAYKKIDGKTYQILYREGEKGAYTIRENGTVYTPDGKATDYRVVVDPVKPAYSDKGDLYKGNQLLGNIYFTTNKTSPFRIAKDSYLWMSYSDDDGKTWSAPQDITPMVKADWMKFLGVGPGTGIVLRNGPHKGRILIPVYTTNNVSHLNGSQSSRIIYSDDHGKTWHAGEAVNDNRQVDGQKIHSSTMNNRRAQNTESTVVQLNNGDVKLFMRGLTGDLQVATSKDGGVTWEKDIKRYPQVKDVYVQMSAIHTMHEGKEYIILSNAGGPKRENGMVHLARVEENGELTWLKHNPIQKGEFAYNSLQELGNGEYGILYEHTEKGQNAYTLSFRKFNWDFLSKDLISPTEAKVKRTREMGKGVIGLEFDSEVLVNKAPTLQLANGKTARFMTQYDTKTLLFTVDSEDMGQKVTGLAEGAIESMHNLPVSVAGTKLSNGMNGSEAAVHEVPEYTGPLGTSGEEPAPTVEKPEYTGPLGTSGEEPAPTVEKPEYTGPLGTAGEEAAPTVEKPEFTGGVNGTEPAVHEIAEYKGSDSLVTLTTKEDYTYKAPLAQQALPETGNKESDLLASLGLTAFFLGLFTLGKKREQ
T2 sequence (P62575 54-1035): as above
Chain of IAV WSN/33 NA-wt (whole virus) (P03470 whole entry, looked up): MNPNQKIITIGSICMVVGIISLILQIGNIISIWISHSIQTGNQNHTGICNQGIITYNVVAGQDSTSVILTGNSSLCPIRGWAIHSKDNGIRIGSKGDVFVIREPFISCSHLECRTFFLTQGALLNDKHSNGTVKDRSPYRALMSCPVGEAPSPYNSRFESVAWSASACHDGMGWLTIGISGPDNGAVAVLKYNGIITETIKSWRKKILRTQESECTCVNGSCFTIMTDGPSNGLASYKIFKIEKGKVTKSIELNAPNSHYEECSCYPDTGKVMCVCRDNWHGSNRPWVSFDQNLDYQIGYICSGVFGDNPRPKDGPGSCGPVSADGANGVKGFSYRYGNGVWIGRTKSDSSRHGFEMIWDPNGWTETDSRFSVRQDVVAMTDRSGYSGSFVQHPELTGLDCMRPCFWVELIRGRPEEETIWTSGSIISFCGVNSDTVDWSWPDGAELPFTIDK

| Compound | IC50 [1] [µM] | IC50 (S. pneumoniae DSM20566; Streptococcus pneumoniae, DSM20566, read-out: 50% inhibitory concentration, S. pneumoniae DSM20566 planktonic growth) [µM] | IC50 [2] [µM] | NA inhibition using FL assay IC50, IAV HK/68 [3] | 50% inhibitory concentration, influenza A virus WSN/33 (influenza A virus WSN/33) | NA inhibition using HA assay MIC, S. p. DSM20566 [4] | sample concentrations provoking erythrocyte lysis, viral HA-assay (human erythrocytes [5]) | sample concentrations provoking erythrocyte lysis, bacterial HA-assay (human erythrocytes [6]) | 50% inhibitory concentration, influenza A virus HK/68 (influenza A virus HK/68) | NA inhibition using HA assay MIC, IAV 5258/09 (IAV 5258/09 NA) | inhibition at 50 µM ([7]; Streptococcus pneumoniae, DSM20566, 50 μM, read-out: Inhibition of biofilm formation at the maximum tested concentration) [%] | 50% inhibitory concentration, influenza A virus 8178/09 [8] | CC50 (in vitro) [µM] | 50% inhibitory concentration, S. pneumoniae DSM20566 planktonic growth (S. pneumoniae DSM20566) | IC50 [3] [µM] | 50% inhibitory concentration, S. pneumoniae DSM20566 biofilm formation ([7]; 24 h, maximum 50 μM) | IC50 ([7]; Streptococcus pneumoniae, DSM20566, 24 h, maximum 50 μM, read-out: 50% inhibitory concentration, S. pneumoniae DSM20566 biofilm formation) [µM] |
| --- | --- | --- | --- | --- | --- | --- | --- | --- | --- | --- | --- | --- | --- | --- | --- | --- | --- |
| O=S(=O)(O)c1cc(S(=O)(=O)O)c2c(/N=N/c3cccc4ccccc34)c(O)ccc2c1 [Compound 16] | 44.3 ± 2.38 | 12 ± 6.81 | 7.68 ± 0.98 | Not active | Not active | 24.40 ± 12.47 µM | no | no | Not active | 31.60 ± 0.00 µM | 46 | Not active | > 100 | – | – | – | – |
| O=S(=O)(O)c1ccc2c(/N=N/c3c(O)ccc4ccccc34)cccc2c1 [Compound 14] | 28.9 ± 6.9 | – | 5.74 ± 1.41 | – | Not active | Not active^c | no | no | Not active | Not active^c | – | Not active | > 100 | Not active | 83 ± 6.25 | Not active | – |
| O=S(=O)(O)c1cc(/N=N/c2c(O)ccc3ccccc23)c2c(S(=O)(=O)O)cccc2c1 [Compound 15] | 28.7 ± 3.3 | – | 46.8 ± 5.27 | Not active | Not active | Not active^c | no | no | Not active | Not active^c | – | Not active | > 100 | Not active | – | Not active | – |
| Cc1ccccc1/N=N/c1ccc(/N=N/c2c(O)ccc3cc(S(=O)(=O)O)cc(S(=O)(=O)O)c23)c(C)c1 [Compound 5] | – | – | 0.97 ± 0.3 | – | Not active | 2.44 ± 1.25 µM | no | no | Not active | 10.00 ± 0.00 µM | – | Not active | > 100 | Not active | 17.8 ± 3.25 | – | 42.2 ± 2.57 |
| COc1cc(/N=N/c2ccc(S(=O)(=O)O)cc2)ccc1/N=N/c1c(O)ccc2cc(S(=O)(=O)O)ccc12 [Compound 8] | 6.51 ± 0.72 | – | 3.9 ± 0.51 | Not active | Not active | Not active | no | no | Not active | Not active | – | Not active | > 100 | Not active | – | Not active | – |
